Laboratory results published in the NIST ThermoML archive (doi:10.1016/j.fluid.2014.11.020).
± gives the expanded uncertainty stated by the source.

Assay: activity coefficient (dimensionless); of the first substance listed, at infinite dilution; xn = mol fraction of the nth substance listed
Details: Liquid, Chromatography, x1 = 0

Compound: C[N+](=O)[O-] [nitromethane] + CCCOC[n+]1ccn(C)c1.F[B-](F)(F)F
- activity coefficient (323.15 K): 0.65 ± 0.04
- activity coefficient (333.15 K): 0.66 ± 0.05
- activity coefficient (343.15 K): 0.67 ± 0.05

Compound: C[N+](=O)[O-] [nitromethane] + CCCOC[n+]1ccn(C)c1.N#C[N-]C#N
- activity coefficient (323.15 K): 0.69 ± 0.05
- activity coefficient (333.15 K): 0.7 ± 0.05
- activity coefficient (343.15 K): 0.73 ± 0.05

Compound: C[N+](=O)[O-] [nitromethane] + CCCOC[n+]1ccn(C)c1.O=S(=O)([N-]S(=O)(=O)C(F)(F)F)C(F)(F)F
- activity coefficient (323.15 K): 0.55 ± 0.04
- activity coefficient (333.15 K): 0.53 ± 0.04
- activity coefficient (343.15 K): 0.53 ± 0.04

Compound: C[N+](=O)[O-] [nitromethane] + CCCOC[n+]1ccn(Cc2ccccc2)c1.F[B-](F)(F)F
- activity coefficient (323.15 K): 0.58 ± 0.04
- activity coefficient (333.15 K): 0.57 ± 0.04
- activity coefficient (343.15 K): 0.58 ± 0.04

Compound: C[N+](=O)[O-] [nitromethane] + CCCOC[n+]1ccn(Cc2ccccc2)c1.N#C[N-]C#N
- activity coefficient (323.15 K): 1.06 ± 0.07
- activity coefficient (333.15 K): 0.71 ± 0.05
- activity coefficient (343.15 K): 0.72 ± 0.05

Compound: C[N+](=O)[O-] [nitromethane] + CCCOC[n+]1ccn(Cc2ccccc2)c1.O=S(=O)([N-]S(=O)(=O)C(F)(F)F)C(F)(F)F
- activity coefficient (323.15 K): 0.46 ± 0.04
- activity coefficient (333.15 K): 0.4 ± 0.03
- activity coefficient (343.15 K): 0.4 ± 0.03

Compound: C[N+](=O)[O-] [nitromethane] + CN(C)c1cc[n+](COCCCOC[n+]2ccc(N(C)C)cc2)cc1.O=S(=O)([N-]S(=O)(=O)C(F)(F)F)C(F)(F)F.O=S(=O)([N-]S(=O)(=O)C(F)(F)F)C(F)(F)F
- activity coefficient (323.15 K): 0.39 ± 0.03
- activity coefficient (333.15 K): 0.39 ± 0.03
- activity coefficient (343.15 K): 0.38 ± 0.03

Compound: C[N+](=O)[O-] [nitromethane] + Cn1cc[n+](COCCCOC[n+]2ccn(C)c2)c1.N#C[N-]C#N.N#C[N-]C#N
- activity coefficient (323.15 K): 0.56 ± 0.04
- activity coefficient (333.15 K): 0.56 ± 0.04
- activity coefficient (343.15 K): 0.57 ± 0.04

Compound: C[N+](=O)[O-] [nitromethane] + Cn1cc[n+](COCCCOC[n+]2ccn(C)c2)c1.O=S(=O)([N-]S(=O)(=O)C(F)(F)F)C(F)(F)F.O=S(=O)([N-]S(=O)(=O)C(F)(F)F)C(F)(F)F
- activity coefficient (323.15 K): 0.31 ± 0.03
- activity coefficient (333.15 K): 0.31 ± 0.03
- activity coefficient (343.15 K): 0.29 ± 0.03

Compound: C[N+](=O)[O-] [nitromethane] + N#C[N-]C#N.N#C[N-]C#N.c1ccc(Cn2cc[n+](COCCCOC[n+]3ccn(Cc4ccccc4)c3)c2)cc1
- activity coefficient (323.15 K): 0.86 ± 0.06
- activity coefficient (333.15 K): 0.85 ± 0.05
- activity coefficient (343.15 K): 0.87 ± 0.06

Compound: CCCCCCCCC [nonane] + CCCCCCCCn1cc[n+](COCCC)c1C.N#C[N-]C#N
- activity coefficient (323.15 K): 14.9 ± 1
- activity coefficient (333.15 K): 13.6 ± 0.93
- activity coefficient (343.15 K): 13.1 ± 0.9

Compound: CCCCCCCCC [nonane] + CCCCCCCCn1cc[n+](COCCC)c1C.O=S(=O)([N-]S(=O)(=O)C(F)(F)F)C(F)(F)F
- activity coefficient (323.15 K): 7.93 ± 0.54
- activity coefficient (333.15 K): 7.42 ± 0.51
- activity coefficient (343.15 K): 6.93 ± 0.47

Compound: CCCCCCCCC [nonane] + CCCCCCCCn1cc[n+](COCCCOC[n+]2ccn(CCCCCCCC)c2C)c1C.N#C[N-]C#N.N#C[N-]C#N
- activity coefficient (323.15 K): 17.1 ± 1.2
- activity coefficient (333.15 K): 15.8 ± 1.1
- activity coefficient (343.15 K): 14.3 ± 0.98

Compound: CCCCCCCCC [nonane] + CCCCCCCCn1cc[n+](COCCCOC[n+]2ccn(CCCCCCCC)c2C)c1C.O=S(=O)([N-]S(=O)(=O)C(F)(F)F)C(F)(F)F.O=S(=O)([N-]S(=O)(=O)C(F)(F)F)C(F)(F)F
- activity coefficient (323.15 K): 8.26 ± 0.56
- activity coefficient (333.15 K): 7.45 ± 0.51
- activity coefficient (343.15 K): 7.1 ± 0.48

Compound: CCCCCCCCC [nonane] + CCCOC[n+]1ccc(N(C)C)cc1.O=S(=O)([N-]S(=O)(=O)C(F)(F)F)C(F)(F)F
- activity coefficient (323.15 K): 32.8 ± 2.2
- activity coefficient (333.15 K): 30.6 ± 2.1
- activity coefficient (343.15 K): 27.1 ± 1.9

Compound: CCCCCCCCC [nonane] + CCCOC[n+]1ccn(C)c1.F[B-](F)(F)F
- activity coefficient (323.15 K): 553 ± 38
- activity coefficient (333.15 K): 384 ± 26
- activity coefficient (343.15 K): 337 ± 23

Compound: CCCCCCCCC [nonane] + CCCOC[n+]1ccn(C)c1.N#C[N-]C#N
- activity coefficient (323.15 K): 263 ± 18
- activity coefficient (333.15 K): 234 ± 16
- activity coefficient (343.15 K): 197 ± 14

Compound: CCCCCCCCC [nonane] + CCCOC[n+]1ccn(C)c1.O=S(=O)([N-]S(=O)(=O)C(F)(F)F)C(F)(F)F
- activity coefficient (323.15 K): 52.4 ± 3.6
- activity coefficient (333.15 K): 45.9 ± 3.1
- activity coefficient (343.15 K): 40.5 ± 2.8

Compound: CCCCCCCCC [nonane] + CCCOC[n+]1ccn(Cc2ccccc2)c1.F[B-](F)(F)F
- activity coefficient (323.15 K): 179 ± 12
- activity coefficient (333.15 K): 164 ± 11
- activity coefficient (343.15 K): 126 ± 8.7

Compound: CCCCCCCCC [nonane] + CCCOC[n+]1ccn(Cc2ccccc2)c1.N#C[N-]C#N
- activity coefficient (323.15 K): 110 ± 7.6
- activity coefficient (333.15 K): 93.6 ± 6.4
- activity coefficient (343.15 K): 76.2 ± 5.2

Compound: CCCCCCCCC [nonane] + CCCOC[n+]1ccn(Cc2ccccc2)c1.O=S(=O)([N-]S(=O)(=O)C(F)(F)F)C(F)(F)F
- activity coefficient (323.15 K): 23.3 ± 1.6
- activity coefficient (333.15 K): 19.1 ± 1.3
- activity coefficient (343.15 K): 17.5 ± 1.2

Compound: CCCCCCCCC [nonane] + CN(C)c1cc[n+](COCCCOC[n+]2ccc(N(C)C)cc2)cc1.O=S(=O)([N-]S(=O)(=O)C(F)(F)F)C(F)(F)F.O=S(=O)([N-]S(=O)(=O)C(F)(F)F)C(F)(F)F
- activity coefficient (323.15 K): 60.7 ± 4.2
- activity coefficient (333.15 K): 52 ± 3.6
- activity coefficient (343.15 K): 47.2 ± 3.2
